Experimental data: patent publication US20260035387A1 (BIOGEN MA INC., priority 2022, published 2026)

Test system: mutant Huntington (HTT) protein
Experiment: HTT Mutant HTRF iPSC assay (mHTT protein lowering)
Format: cell-based
Conditions: human iPSC derived from a HTT patient with a poly-Q49 mutation

SMILES	IC50
CC(C)n1ncc2ccc(NC(=O)c3cc4ccc(N5CCC(N(C)C)C5)nc4s3)cc21 (stereo not drawn) [Compound 61, 6-(3-(dimethylamino)pyrrolidin-1-yl)-N-(1-isopropyl-1H-indazol-6-yl)thieno[2,3-b]pyridine-2-carboxamide]	1000 to 9000 nM
CN(C)C1CCN(c2ccc3cc(C(=O)Nc4ccc5cncn5c4)sc3n2)C1 (stereo not drawn) [Compound 62, 6-(3-(dimethylamino)pyrrolidin-1-yl)-N-(imidazo[1,5-a]pyridin-6-yl)thieno[2,3-b]pyridine-2-carboxamide]	1000 to 9000 nM
CN(C)C1CCN(c2ccc3cc(C(=O)Nc4ccc5nsnc5c4)sc3n2)C1 (stereo not drawn) [Compound 63, N-(benzo[c][1,2,5]thiadiazol-5-yl)-6-(3-(dimethylamino)pyrrolidin-1-yl)thieno[2,3-b]pyridine-2-carboxamide]	1000 to 9000 nM
CN(C)C1CCN(c2ccc3cc(C(=O)Nc4nc5cnccn5n4)sc3n2)C1 (stereo not drawn) [Compound 64, N-([1,2,4]triazolo[1,5-a]pyrazin-2-yl)-6-(3-(dimethylamino)pyrrolidin-1-yl)thieno[2,3-b]pyridine-2-carboxamide]	1000 to 9000 nM
CN(C)C1CCN(c2ccc3cc(C(=O)Nc4cc(F)c5nn(C)cc5c4)sc3n2)C1 (stereo not drawn) [Compound 65, 6-(3-(dimethylamino)pyrrolidin-1-yl)-N-(7-fluoro-2-methyl-2H-indazol-5-yl)thieno[2,3-b]pyridine-2-carboxamide]	< 100 nM
Cc1cn2cc(NC(=O)c3cc4ccc(N5C[C@@H]6CCN(C)[C@@H]6C5)nc4s3)cc(F)c2n1 [Compound 66, 6-[(3aS,6aS)-1-methyl-2,3,3a,4,6,6a-hexahydropyrrolo[3,4-b]pyrrol-5-yl]-N-(8-fluoro-2-methyl-imidazo[1,2-a]pyridin-6-yl)thieno[2,3-b]pyridine-2-carboxamide]	< 100 nM
Cc1cn2cc(NC(=O)c3cc4ccc(N5C[C@@H](C)N(C)[C@@H](C)C5)nc4s3)cc(F)c2n1 [Compound 69, N-(8-fluoro-2-methylimidazo[1,2-a]pyridin-6-yl)-6-((3R,5S)-3,4,5-trimethylpiperazin-1-yl)thieno[2,3-b]pyridine-2-carboxamide]	< 100 nM
Cc1cn2cc(NC(=O)c3cc4ccc(N5C[C@H]6CCN(C)[C@H]6C5)nc4s3)cc(F)c2n1 [Compound 70, N-(8-fluoro-2-methylimidazo[1,2-a]pyridin-6-yl)-6-((3aR,6aR)-1-methylhexahydropyrrolo[3,4-b]pyrrol-5(1H)-yl)thieno[2,3-b]pyridine-2-carboxamide]	< 100 nM
Cc1nc2c(F)cc(NC(=O)c3cc4ccc(N5CCC(N(C)C)C5)nc4s3)cc2o1 (stereo not drawn) [Compound 71, 6-(3-(dimethylamino)pyrrolidin-1-yl)-N-(4-fluoro-2-methylbenzo[d]oxazol-6-yl)thieno[2,3-b]pyridine-2-carboxamide]	< 100 nM
COc1cc(NC(=O)c2cc3ccc(N4CCC(N(C)C)C4)nc3s2)cn2cc(C)nc12 (stereo not drawn) [Compound 72, 6-(3-(dimethylamino)pyrrolidin-1-yl)-N-(8-methoxy-2-methylimidazo[1,2-a]pyridin-6-yl)thieno[2,3-b]pyridine-2-carboxamide]	100 to 1000 nM
Cc1cn2cc(NC(=O)c3cc4ccc(N5CCC(N(C)C)C5)nc4s3)cc(C)c2n1 (stereo not drawn) [Compound 73, 6-(3-(dimethylamino)pyrrolidin-1-yl)-N-(2,8-dimethylimidazo[1,2-a]pyridin-6-yl)thieno[2,3-b]pyridine-2-carboxamide]	1000 to 9000 nM
COc1cc2nn(C)cc2cc1NC(=O)c1cc2ccc(N3CCC(N(C)C)C3)nc2s1 (stereo not drawn) [Compound 74, 6-(3-(dimethylamino)pyrrolidin-1-yl)-N-(6-methoxy-2-methyl-2H-indazol-5-yl)thieno[2,3-b]pyridine-2-carboxamide]	100 to 1000 nM
Cc1cn2cc(NC(=O)c3cc4ccc(N5CCNCC5)nc4s3)cc(F)c2n1 [Compound 75, N-(8-fluoro-2-methylimidazo[1,2-a]pyridin-6-yl)-6-(piperazin-1-yl)thieno[2,3-b]pyridine-2-carboxamide]	< 100 nM
Cc1cn2cc(NC(=O)c3cc4ccc(N5CC6(CCCN(C)C6)C5)nc4s3)cc(F)c2n1 [Compound 76, N-(8-fluoro-2-methylimidazo[1,2-a]pyridin-6-yl)-6-(6-methyl-2,6-diazaspiro[3.5]nonan-2-yl)thieno[2,3-b]pyridine-2-carboxamide]	100 to 1000 nM
Cc1cn2cc(NC(=O)c3cc4ccc(N5CCN(C)CC5)nc4s3)cc(F)c2n1 [Compound 77, N-(8-fluoro-2-methylimidazo[1,2-a]pyridin-6-yl)-6-(4-methylpiperazin-1-yl)thieno[2,3-b]pyridine-2-carboxamide]	< 100 nM
Cc1cn2cc(NC(=O)c3cc4ccc(N5CCC(C6(N)CC6)C5)nc4s3)cc(F)c2n1 (stereo not drawn) [Compound 78, 6-(3-(1-aminocyclopropyl)pyrrolidin-1-yl)-N-(8-fluoro-2-methylimidazo[1,2-a]pyridin-6-yl)thieno[2,3-b]pyridine-2-carboxamide]	< 100 nM
Cc1cn2cc(NC(=O)c3cc4ccc(N5CCN(C6CC6)CC5)nc4s3)cc(F)c2n1 [Compound 79, 6-(4-cyclopropylpiperazin-1-yl)-N-(8-fluoro-2-methylimidazo[1,2-a]pyridin-6-yl)thieno[2,3-b]pyridine-2-carboxamide]	< 100 nM

SMILES	IC50
Cc1cn2cc(NC(=O)c3cc4ccc(N5C[C@H]6CNC[C@H]6C5)nc4s3)cc(F)c2n1 [Compound 80, N-(8-fluoro-2-methylimidazo[1,2-a]pyridin-6-yl)-6-((3aR,6aS)-hexahydropyrrolo[3,4-c]pyrrol-2(1H)-yl)thieno[2,3-b]pyridine-2-carboxamide]	100 to 1000 nM
Cc1cn2cc(NC(=O)c3cc4ccc(C5=CC6CCC(C5)N6)nc4s3)cc(F)c2n1 (stereo not drawn) [Compound 83, 6-(8-azabicyclo[3.2.1]oct-2-en-3-yl)-N-(8-fluoro-2-methylimidazo[1,2-a]pyridin-6-yl)thieno[2,3-b]pyridine-2-carboxamide]	< 100 nM
Cc1cn2cc(NC(=O)c3cc4ccc(C5=CCCNC5)nc4s3)cc(F)c2n1 [Compound 84, N-(8-fluoro-2-methyl-imidazo[1,2-a]pyridin-6-yl)-6-(1,2,3,6-tetrahydropyridin-5-yl)thieno[2,3-b]pyridine-2-carboxamide]	< 100 nM
Cc1cn2cc(NC(=O)c3cc4ccc(C5CCNCC5)nc4s3)cc(F)c2n1 [Compound 85, N-(8-fluoro-2-methylimidazo[1,2-a]pyridin-6-yl)-6-(piperidin-4-yl)thieno[2,3-b]pyridine-2-carboxamide]	< 100 nM
Cc1cn2cc(NC(=O)c3cc4ncc(N5CCC(N(C)C)C5)cc4o3)cc(F)c2n1 (stereo not drawn) [Compound 86, 6-[3-(dimethylamino)pyrrolidin-1-yl]-N-(8-fluoro-2-methyl-imidazo[1,2-a]pyridin-6-yl)furo[3,2-b]pyridine-2-carboxamide]	100 to 1000 nM
COc1cc2nn(C)cc2cc1NC(=O)c1nc2ccc(N3CCC4(CCCN4C)C3)nc2s1 (stereo not drawn) [Compound 87, N-(6-methoxy-2-methyl-2H-indazol-5-yl)-5-(1-methyl-1,7-diazaspiro[4.4]nonan-7-yl)thiazolo[5,4-b]pyridine-2-carboxamide]	< 100 nM
COc1cc2nn(C)cc2cc1NC(=O)c1nc2ccc(N3CCC4(CN(C)C4)C3)nc2s1 [Compound 88, N-(6-methoxy-2-methyl-2H-indazol-5-yl)-5-(2-methyl-2,6-diazaspiro[3.4]octan-6-yl)thiazolo[5,4-b]pyridine-2-carboxamide]	< 100 nM
Cc1cn2cc(NC(=O)c3nc4ccc(N5CC[C@@H](N(C)C)C5)nc4s3)cc(F)c2n1 [Compound 89, 5-[(3R)-3-(dimethylamino)pyrrolidin-1-yl]-N-(8-fluoro-2-methyl-imidazo[1,2-a]pyridin-6-yl)thiazolo[5,4-b]pyridine-2-carboxamide]	< 100 nM
COc1cc2nn(C)cc2cc1NC(=O)c1nc2ccc(N3C[C@@H]4CN(C)C[C@@H]43)nc2s1 [Compound 90, N-(6-methoxy-2-methyl-2H-indazol-5-yl)-5-((1S,5R)-3-methyl-3,6-diazabicyclo[3.2.0]heptan-6-yl)thiazolo[5,4-b]pyridine-2-carboxamide]	< 100 nM
COc1c(NC(=O)c2nc3ccc(N4CC[C@H](N(C)C)C4)nc3s2)cn2cc(C)nc2c1F [Compound 91, (S)-5-(3-(dimethylamino)pyrrolidin-1-yl)-N-(8-fluoro-7-methoxy-2-methylimidazo[1,2-a]pyridin-6-yl)thiazolo[5,4-b]pyridine-2-carboxamide]	< 100 nM
Cc1cn2cc(NC(=O)c3nc4ccc(N5CC[C@H](N(C)C)C5)nc4s3)cc(F)c2n1 [Compound 93, (S)-5-(3-(dimethylamino)pyrrolidin-1-yl)-N-(8-fluoro-2-methylimidazo[1,2-a]pyridin-6-yl)thiazolo[5,4-b]pyridine-2-carboxamide]	< 100 nM
COc1cc(NC(=O)c2nc3ccc(N4CCC5(CCCN5C)C4)nc3s2)cn2cc(C)nc12 (stereo not drawn) [Compound 95, N-(8-methoxy-2-methylimidazo[1,2-a]pyridin-6-yl)-5-(1-methyl-1,7-diazaspiro[4.4]nonan-7-yl)thiazolo[5,4-b]pyridine-2-carboxamide]	< 100 nM
CCN1CCN(c2ccc3nc(C(=O)Nc4cn5cc(C)nc5c(OC)n4)sc3n2)CC1 [Compound 96, 5-(4-ethylpiperazin-1-yl)-N-(8-methoxy-2-methylimidazo[1,2-a]pyrazin-6-yl)thiazolo[5,4-b]pyridine-2-carboxamide]	< 100 nM
Cc1cn2cc(NC(=O)c3nc4ccc(N5CCC6(CCCN6C)C5)nc4s3)cc(F)c2n1 (stereo not drawn) [Compound 98, N-(8-fluoro-2-methylimidazo[1,2-a]pyridin-6-yl)-5-(1-methyl-1,7-diazaspiro[4.4]nonan-7-yl)thiazolo[5,4-b]pyridine-2-carboxamide]	< 100 nM
Cc1cn2cc(NC(=O)c3nc4ccc(N5CCC(N6CCC6)C5)nc4s3)cc(F)c2n1 (stereo not drawn) [Compound 99, 5-(3-(azetidin-1-yl)pyrrolidin-1-yl)-N-(8-fluoro-2-methylimidazo[1,2-a]pyridin-6-yl)thiazolo[5,4-b]pyridine-2-carboxamide]	< 100 nM
COc1nc(NC(=O)c2nc3ccc(N4CCC(N(C)C)C4)nc3s2)cn2cc(C)nc12 (stereo not drawn) [Compound 100, 5-(3-(dimethylamino)pyrrolidin-1-yl)-N-(8-methoxy-2-methylimidazo[1,2-a]pyrazin-6-yl)thiazolo[5,4-b]pyridine-2-carboxamide]	< 100 nM
